Measurements as given in the NIST ThermoML archive (doi:10.1007/s10765-013-1469-0).
± gives the expanded uncertainty stated by the source.

Legend:
[1] = 101 kPa, Liquid; for viscosity: Concentric cylinders viscometry; for mass density: Vibrating tube method
[2] = refractive index (Na D-line) (dimensionless); conditions: 101.33 kPa, Liquid, Standard Abbe refractometry
[3] = refractive index (Na D-line) (dimensionless); xn = mol fraction of the nth substance listed; conditions: 101 kPa, Liquid, Standard Abbe refractometry, x1 = 1
[4] = xn = mol fraction of the nth substance listed; conditions: 101 kPa, Liquid, x1 = 1; for viscosity: Concentric cylinders viscometry; for mass density: Vibrating tube method

CCCCO [butan-1-ol]
viscosity ([1]; 288.15 K): 3.356 ± 0.031 mPa·s | mass density ([1]; 288.15 K): 813.407 ± 0.14 kg/m3 | viscosity ([1]; 293.15 K): 2.965 ± 0.028 mPa·s | mass density ([1]; 293.15 K): 809.621 ± 0.14 kg/m3 | viscosity ([1]; 298.15 K): 2.593 ± 0.024 mPa·s | mass density ([1]; 298.15 K): 805.804 ± 0.15 kg/m3 | viscosity ([1]; 303.15 K): 2.277 ± 0.022 mPa·s | mass density ([1]; 303.15 K): 801.964 ± 0.15 kg/m3 | viscosity ([1]; 308.15 K): 2.008 ± 0.019 mPa·s | mass density ([1]; 308.15 K): 798.091 ± 0.15 kg/m3 | viscosity ([1]; 313.15 K): 1.78 ± 0.017 mPa·s | mass density ([1]; 313.15 K): 794.181 ± 0.15 kg/m3 | viscosity ([1]; 318.15 K): 1.583 ± 0.015 mPa·s | mass density ([1]; 318.15 K): 790.229 ± 0.15 kg/m3 | viscosity ([1]; 323.15 K): 1.412 ± 0.014 mPa·s | mass density ([1]; 323.15 K): 786.228 ± 0.15 kg/m3 | viscosity ([1]; 328.15 K): 1.264 ± 0.013 mPa·s | mass density ([1]; 328.15 K): 782.172 ± 0.15 kg/m3 | viscosity ([1]; 333.15 K): 1.132 ± 0.012 mPa·s | mass density ([1]; 333.15 K): 778.056 ± 0.15 kg/m3 | refractive index ([2]; 288.15 K): 1.40131 ± 0.00033 | refractive index ([2]; 293.15 K): 1.39932 ± 0.00033 | refractive index ([2]; 298.15 K): 1.39729 ± 0.00033 | refractive index ([2]; 303.15 K): 1.39529 ± 0.00033 | refractive index ([2]; 308.15 K): 1.39317 ± 0.00033 | refractive index ([2]; 313.15 K): 1.39104 ± 0.00033 | refractive index ([2]; 318.15 K): 1.38893 ± 0.00033 | refractive index ([2]; 323.15 K): 1.38683 ± 0.00033 | refractive index ([2]; 328.15 K): 1.38474 ± 0.00033 | refractive index ([2]; 333.15 K): 1.38237 ± 0.00033

CCCCO [butan-1-ol] + COCCOCCOCCOCCOC
refractive index ([3]; 288.15 K): 1.40131 ± 0.00033 | refractive index ([3]; 293.15 K): 1.39932 ± 0.00033 | refractive index ([3]; 298.15 K): 1.39729 ± 0.00033 | refractive index ([3]; 303.15 K): 1.39529 ± 0.00033 | refractive index ([3]; 308.15 K): 1.39317 ± 0.00033 | refractive index ([3]; 313.15 K): 1.39104 ± 0.00033 | refractive index ([3]; 318.15 K): 1.38893 ± 0.00033 | refractive index ([3]; 323.15 K): 1.38683 ± 0.00033 | refractive index ([3]; 328.15 K): 1.38474 ± 0.00033 | refractive index ([3]; 333.15 K): 1.38237 ± 0.00033 | viscosity ([4]; 288.15 K): 3.356 ± 0.031 mPa·s | mass density ([4]; 288.15 K): 813.407 ± 0.14 kg/m3 | viscosity ([4]; 293.15 K): 2.965 ± 0.028 mPa·s | mass density ([4]; 293.15 K): 809.621 ± 0.14 kg/m3 | viscosity ([4]; 298.15 K): 2.593 ± 0.024 mPa·s | mass density ([4]; 298.15 K): 805.804 ± 0.15 kg/m3 | viscosity ([4]; 303.15 K): 2.277 ± 0.022 mPa·s | mass density ([4]; 303.15 K): 801.964 ± 0.15 kg/m3 | viscosity ([4]; 308.15 K): 2.008 ± 0.019 mPa·s | mass density ([4]; 308.15 K): 798.091 ± 0.15 kg/m3 | viscosity ([4]; 313.15 K): 1.78 ± 0.017 mPa·s | mass density ([4]; 313.15 K): 794.181 ± 0.15 kg/m3 | viscosity ([4]; 318.15 K): 1.583 ± 0.015 mPa·s | mass density ([4]; 318.15 K): 790.229 ± 0.15 kg/m3 | viscosity ([4]; 323.15 K): 1.412 ± 0.014 mPa·s | mass density ([4]; 323.15 K): 786.228 ± 0.15 kg/m3 | viscosity ([4]; 328.15 K): 1.264 ± 0.013 mPa·s | mass density ([4]; 328.15 K): 782.172 ± 0.15 kg/m3 | viscosity ([4]; 333.15 K): 1.132 ± 0.012 mPa·s | mass density ([4]; 333.15 K): 778.056 ± 0.15 kg/m3

COCCOCCOCCOCCOC [2,5,8,11,14-pentaoxapentadecane]
viscosity ([1]; 288.15 K): 4.341 ± 0.04 mPa·s | mass density ([1]; 288.15 K): 1015.63 ± 0.1 kg/m3 | viscosity ([1]; 293.15 K): 3.834 ± 0.035 mPa·s | mass density ([1]; 293.15 K): 1011 ± 0.1 kg/m3 | viscosity ([1]; 298.15 K): 3.38 ± 0.031 mPa·s | mass density ([1]; 298.15 K): 1006.36 ± 0.1 kg/m3 | viscosity ([1]; 303.15 K): 3.004 ± 0.028 mPa·s | mass density ([1]; 303.15 K): 1001.73 ± 0.098 kg/m3 | viscosity ([1]; 308.15 K): 2.691 ± 0.025 mPa·s | mass density ([1]; 308.15 K): 997.104 ± 0.098 kg/m3 | viscosity ([1]; 313.15 K): 2.426 ± 0.023 mPa·s | mass density ([1]; 313.15 K): 992.481 ± 0.099 kg/m3 | viscosity ([1]; 318.15 K): 2.199 ± 0.021 mPa·s | mass density ([1]; 318.15 K): 987.859 ± 0.1 kg/m3 | viscosity ([1]; 323.15 K): 2.006 ± 0.019 mPa·s | mass density ([1]; 323.15 K): 983.234 ± 0.1 kg/m3 | viscosity ([1]; 328.15 K): 1.838 ± 0.018 mPa·s | mass density ([1]; 328.15 K): 978.613 ± 0.1 kg/m3 | viscosity ([1]; 333.15 K): 1.691 ± 0.016 mPa·s | mass density ([1]; 333.15 K): 973.989 ± 0.1 kg/m3 | refractive index ([2]; 288.15 K): 1.4345 ± 0.00033 | refractive index ([2]; 293.15 K): 1.43238 ± 0.00033 | refractive index ([2]; 298.15 K): 1.43027 ± 0.00033 | refractive index ([2]; 303.15 K): 1.42815 ± 0.00033 | refractive index ([2]; 308.15 K): 1.42603 ± 0.00033 | refractive index ([2]; 313.15 K): 1.42394 ± 0.00033 | refractive index ([2]; 318.15 K): 1.42183 ± 0.00033 | refractive index ([2]; 323.15 K): 1.41973 ± 0.00033 | refractive index ([2]; 328.15 K): 1.41765 ± 0.00033 | refractive index ([2]; 333.15 K): 1.41553 ± 0.00033
